One assay has as its system rice blast. Briefly: microbe, parasite or virus in culture. It counts as cell-based. To be noted: Pyricularia oryzae; for inhibition at 25 ppm: read-out: inhibition rate against rice blast, 25 ppm, in vitro.
In another assay the test system is wheat powdery mildew. The experiment in a line: protectant activity in vivo against wheat powdery mildew. To be noted: for pest or weed control at 6.25 µg/mL / pest or weed control at 25 µg/mL / pest or weed control at 100 µg/mL / pest or weed control at 400 µg/mL: Triticum aestivum, 168 h, protectant activity; for pest or weed control at 6.25 µg/mL: read-out: control effect against wheat powdery mildew (%), 6.25 mg/L; for pest or weed control at 25 µg/mL: read-out: control effect against wheat powdery mildew (%), 25 mg/L; for pest or weed control at 100 µg/mL: read-out: control effect against wheat powdery mildew (%), 100 mg/L; for pest or weed control at 400 µg/mL: read-out: control effect against wheat powdery mildew (%), 400 mg/L.

In another assay the test system is cucumber downy mildew. Briefly: protectant activity in vivo against cucumber downy mildew. To be noted: Cucumis sativus, 168 h, protectant activity.
In assay [1] the test system is Green peach aphids (Myzus Persicae Sulzer). Briefly: bioactivity test against green peach aphid, airbrush foliar spray. It counts as in vivo. Conditions: for pest or weed control at 2.5 µg/mL / pest or weed control at 5 µg/mL / pest or weed control at 10 µg/mL / pest or weed control at 100 µg/mL / pest or weed control at 600 µg/mL: Myzus persicae, foliar, 48 h, read-out: Insecticidal activity against peach aphid (%); for pest or weed control at 2.5 µg/mL / pest or weed control at 5 µg/mL / pest or weed control at 10 µg/mL / pest or weed control at 100 µg/mL / pest or weed control at 600 µg/mL / Insecticidal activity against peach aphid (%): contrastive test; for control (test results against green peach aphid): death rate after 48 hrs. An outline of the steps:
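Death rate was scored at 48 hrs, held at 25±1 C and 60±5% RH, following airbrush foliar spray (0.5 mL, 10 psi) onto cabbage leaf discs bearing about 15-30 aphids. Test solutions: compound dissolved in 1:1 acetone:methanol, brought to concentration with 0.1% tween 80 water.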

A further assay relates to armyworm. The experiment in a line: bioactivity test against armyworm, airbrush spray. It counts as in vivo. Conditions: for pest or weed control at 600 µg/mL / pest or weed control at 10 µg/mL / pest or weed control at 100 µg/mL: 72 h, read-out: Insecticidal activity against armyworm (%); for pest or weed control at 600 µg/mL: 600 mg/L; for pest or weed control at 10 µg/mL: 10 mg/L; for pest or weed control at 100 µg/mL: 100 mg/L; for control (test results against armyworm): mortality after 72 h.

The test system of the next assay is Diamond back moth. The experiment in a line: insecticidal activity against diamond back moth, airbrush spray. It counts as in vivo. To be noted: for pest or weed control at 10 µg/mL / pest or weed control at 100 µg/mL / pest or weed control at 600 µg/mL: 72 h; for pest or weed control at 10 µg/mL: 10 mg/L; for pest or weed control at 100 µg/mL: 100 mg/L; for pest or weed control at 600 µg/mL: 600 mg/L; for control (test results against diamond back moth): mortality after 72 hrs. An outline of the steps:
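Airbrush leaf-disc spray test: both faces of 2 cm cabbage discs received 0.5 ml of test solution at 0.7 kg/cm^2. Solutions were made in acetone:methanol (1:1) and brought to concentration with 0.1% Tween 80 in water. Ten second-instar larvae per disc, triplicates, were held at 25° C and 60˜70% R.H., with mortality recorded at 72 hrs.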

A further assay relates to corn rust. The experiment in a line: protectant activity in vivo against corn rust. Conditions: for pest or weed control at 400 µg/mL / pest or weed control at 0.4 µg/mL / pest or weed control at 1.6 µg/mL / pest or weed control at 6.25 µg/mL / pest or weed control at 25 µg/mL / pest or weed control at 100 µg/mL: Zea mays, 168 h, protectant activity; for pest or weed control at 400 µg/mL: read-out: control effect against corn rust (%), 400 mg/L; for pest or weed control at 0.4 µg/mL: read-out: control effect against corn rust (%), 0.4 mg/L; for pest or weed control at 1.6 µg/mL: read-out: control effect against corn rust (%), 1.6 mg/L; for pest or weed control at 6.25 µg/mL: read-out: control effect against corn rust (%), 6.25 mg/L; for pest or weed control at 25 µg/mL: read-out: control effect against corn rust (%), 25 mg/L; for pest or weed control at 100 µg/mL: read-out: control effect against corn rust (%), 100 mg/L.

A further assay deals with carmine spider mite. The experiment in a line: bioactivity test against carmine spider mite, airbrush spray. It counts as in vivo. To be noted: for pest or weed control at 10 µg/mL / pest or weed control at 100 µg/mL / pest or weed control at 600 µg/mL: Tetranychus cinnabarinus, 72 h, read-out: Insecticidal activity against carmine spider mite (% ); for control against carmine spider mite: mortality after 72 hrs. An outline of the steps: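 Broadbean seedlings infested with adult mites were sprayed with compound (acetone/methanol stock diluted in 0.1% Tween 80 water) by airbrush at 0.7 kg/cm^2, 0.5 ml. Three replicates were run. Mortality was scored after 72 hrs.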

For `FC(F)(F)c1ccc(Oc2ccc(CCNc3ncnc4ccccc34)cc2)cc1` [CK11, reference compound], the inhibition at 25 ppm with rice blast stood at 0%. Further, the pest or weed control at 6.25 µg/mL in the assay on wheat powdery mildew is 0%. The pest or weed control at 25 µg/mL in the assay with wheat powdery mildew was 40%; in the assay on cucumber downy mildew (read-out: control effect against cucumber downy mildew (%), 25 mg/L) it was 0%. The pest or weed control at 100 µg/mL in the assay with wheat powdery mildew was determined as 60%; in the assay with cucumber downy mildew (read-out: control effect against cucumber downy mildew (%), 100 mg/L) it was 30%; in assay [1] (100 mg/L) it was 98%; with Diamond back moth it was 55%. In addition, the pest or weed control at 400 µg/mL with wheat powdery mildew came to 100%; in the assay with cucumber downy mildew (read-out: control effect against cucumber downy mildew (%), 400 mg/L), 85%. Also, the pest or weed control at 50 µg/mL in the assay on cucumber downy mildew (read-out: control effect against cucumber downy mildew (%), 50 mg/L) was 0%. Further, in assay [1] (2.5 mg/L), the pest or weed control at 2.5 µg/mL worked out at 0%. Also, the pest or weed control at 5 µg/mL in assay [1] (5 mg/L) is 25%. Besides, the pest or weed control at 10 µg/mL in assay [1] (10 mg/L) came out at 85%; in the assay with Diamond back moth, 5%. The pest or weed control at 600 µg/mL turned out to be 100% in assay [1] (600 mg/L), 29% with armyworm and 86% in the assay on Diamond back moth.
On to `CCc1ncnc(NCc2ccc(Oc3ncc(C(F)(F)F)cc3Cl)cc2)c1Cl` [CK38, reference compound], for which the inhibition at 25 ppm in the assay on rice blast came to 0%. For the same compound, the pest or weed control at 400 µg/mL in the assay with corn rust is 0%. Moreover, the pest or weed control at 10 µg/mL is 0% in assay [1] (10 mg/L); 14% with carmine spider mite (10 mg/L, contrastive test); 5% with Diamond back moth. The pest or weed control at 100 µg/mL in assay [1] (100 mg/L) was determined as 24%; in the assay on carmine spider mite (100 mg/L, contrastive test), 37%; in the assay on Diamond back moth, 21%. Further, the pest or weed control at 600 µg/mL in assay [1] (600 mg/L) is 100%; in the assay on carmine spider mite (600 mg/L, contrastive test), 99%; in the assay with armyworm, 0%; in the assay with Diamond back moth it was 100%.
As to `CCc1ncnc(NC(C)c2ccc(Oc3ncc(C(F)(F)F)cc3Cl)cc2)c1Cl` (stereo not shown) [CK39, reference compound], the inhibition at 25 ppm with rice blast was found to be 0%. For the same compound, the pest or weed control at 0.4 µg/mL in the assay on corn rust was 0%. Further, in the assay on corn rust, the pest or weed control at 1.6 µg/mL stood at 10%. The pest or weed control at 6.25 µg/mL in the assay with corn rust amounted to 50%. Besides, the pest or weed control at 25 µg/mL in the assay on corn rust was 80%. Further, the pest or weed control at 100 µg/mL in the assay with corn rust stood at 100%; in assay [1] (100 mg/L), 86%; in the assay with carmine spider mite (100 mg/L, contrastive test), 37%; in the assay with Diamond back moth, 20%. Further, in the assay with corn rust, the pest or weed control at 400 µg/mL came out at 100%. In addition, the pest or weed control at 5 µg/mL in assay [1] (5 mg/L) was 0%. The pest or weed control at 10 µg/mL in assay [1] (10 mg/L) was determined as 2%; in the assay with carmine spider mite (10 mg/L, contrastive test) it was 16%; in the assay on Diamond back moth, 0%. In addition, the pest or weed control at 600 µg/mL in assay [1] (600 mg/L) is 100%; in the assay with carmine spider mite (600 mg/L, contrastive test) it was 100%; in the assay with armyworm it was 0%; with Diamond back moth it was 80%.
Turning to `CCc1ncnc(NC(C)c2ccc(Oc3ccc(C(F)(F)F)cn3)cc2)c1Cl` (stereo not shown) [CK40, reference compound], the inhibition at 25 ppm in the assay with rice blast is under 50%. Besides, in the assay on corn rust, the pest or weed control at 0.4 µg/mL was 0%, the pest or weed control at 1.6 µg/mL stood at 30%, the pest or weed control at 6.25 µg/mL is 70% and the pest or weed control at 25 µg/mL came to 90%. Further, in the assay with corn rust, the pest or weed control at 100 µg/mL came to 100% and the pest or weed control at 400 µg/mL turned out to be 100%. The pest or weed control at 2.5 µg/mL in assay [1] (2.5 mg/L) turned out to be 0%. In addition, in assay [1] (5 mg/L), the pest or weed control at 5 µg/mL came out at 27%. Further, the pest or weed control at 10 µg/mL in assay [1] (10 mg/L) was found to be 72%. Moreover, the pest or weed control at 100 µg/mL in assay [1] (100 mg/L) stood at 100%. Besides, the pest or weed control at 600 µg/mL in assay [1] (600 mg/L) was 100%. In the assay on armyworm, the pest or weed control at 10 µg/mL was 0%, the pest or weed control at 100 µg/mL is 6% and the pest or weed control at 600 µg/mL is 43%. In the assay on Diamond back moth, this compound gave a pest or weed control at 10 µg/mL of 13%, a pest or weed control at 100 µg/mL of 29% and a pest or weed control at 600 µg/mL of 100%.
Take `CCC(Nc1ncnc(C)c1Cl)c1ccc(Oc2ccc(C(F)(F)F)cn2)cc1` (stereo not shown) [CK41, reference compound]: in the assay with rice blast, the inhibition at 25 ppm is under 50%. In addition, the pest or weed control at 6.25 µg/mL in the assay on wheat powdery mildew was found to be 0%; with corn rust, 80%. Further, the pest or weed control at 25 µg/mL in the assay on wheat powdery mildew was 50%; with corn rust, 90%. Also, the pest or weed control at 100 µg/mL in the assay with wheat powdery mildew turned out to be 70%; in the assay with corn rust, 100%; in assay [1] (100 mg/L) it was 97%; with carmine spider mite (100 mg/L, contrastive test), 99%; with armyworm it was 0%; in the assay with Diamond back moth, 53%. The pest or weed control at 400 µg/mL in the assay with wheat powdery mildew and in the assay with corn rust was 100% each time. Also, in the assay on corn rust, the pest or weed control at 0.4 µg/mL amounted to 0%. Further, the pest or weed control at 1.6 µg/mL in the assay on corn rust is 20%. In addition, the pest or weed control at 2.5 µg/mL in assay [1] (2.5 mg/L) is 0%. Besides, the pest or weed control at 5 µg/mL in assay [1] (5 mg/L) stood at 15%. Also, the pest or weed control at 10 µg/mL in assay [1] (10 mg/L) stood at 23%; in the assay on carmine spider mite (10 mg/L, contrastive test) it was 0%; in the assay on armyworm, 0%; in the assay on Diamond back moth, 0%. In addition, the pest or weed control at 600 µg/mL is 100% in assay [1] (600 mg/L); 100% in the assay with carmine spider mite (600 mg/L, contrastive test); 100% in the assay on armyworm; 86% with Diamond back moth.
For `CCc1ncnc(NCCc2ccc(Oc3ccc(C(F)(F)F)cn3)cc2)c1Cl` [Compound I-6758], in the assay on rice blast (read-out: inhibition rate against rice blast, 8.3 ppm, in vitro), the inhibition at 8.3 ppm fell in the range of 80 to 99%. In addition, the “protectant activity against wheat powdery mildew in vivo” value in the assay on wheat powdery mildew (100 ppm) and in the assay with wheat powdery mildew (400 ppm) was 100% throughout. For the same compound, the “protectant activity against corn rust in vivo” value in the assay on corn rust (100 ppm) and in the assay with corn rust (400 ppm) was 100% throughout. Moreover, the “Insecticidal activity against peach aphid (%)” value is on record as 89% in assay [1] (1.25 mg/L); 100% in assay [1] (2.5 mg/L); 100% in assay [1] (5 mg/L); 100% in assay [1] (10 mg/L); 100% in assay [1] (100 mg/L); 100% in assay [1] (600 mg/L). Moreover, the “control (test results against green peach aphid)” value in assay [1] (2.5 ppm), in assay [1] (5 ppm), in assay [1] (10 ppm), in assay [1] (100 ppm) and in assay [1] (600 ppm) was 100% each time. Further, the “Insecticidal activity against carmine spider mite (% )” value with carmine spider mite (2.5 mg/L) amounted to 79%; in the assay on carmine spider mite (5 mg/L) it was 82%; in the assay on carmine spider mite (10 mg/L, contrastive test), 99%; in the assay with carmine spider mite (100 mg/L, contrastive test) it was 100%; with carmine spider mite (600 mg/L, contrastive test), 100%. Moreover, the “control against carmine spider mite” value in the assay with carmine spider mite (100 ppm) and with carmine spider mite (600 ppm) was 100% each time. Besides, the “control (test results against armyworm)” value in the assay with armyworm (100 ppm) and in the assay on armyworm (600 ppm) was 100% throughout. In addition, the “control (test results against diamond back moth)” value in the assay on Diamond back moth (100 ppm) and in the assay with Diamond back moth (600 ppm) was 100% in each case.

What is called inhibition is how much of the control response was suppressed.

These data come from patent US9770026B2, “Substituted pyrimidine compound and uses thereof” (Shenyang Sinochem Agrochemicals R&D Co., Ltd., priority 2012, dated 2017).
